Experimental data taken from paper PMC11577759, “The structure of lipopeptides impacts their antiviral activity and mode of action against SARS-CoV-2 in vitro” (Applied and Environmental Microbiology, 2024).

Assays:
Vero E6 cells = assay: Cytotoxicity, CyQUANT XTT cell viability assay; assay type: cell-based, Chlorocebus sp.; conditions: for IC50 (half maximal inhibitory concentration, cytotoxicity): Vero E6 cells, XTT, mean (standard deviation), fengycin and caspofungin determined at higher concentrations in a subsequent experiment; for IC50 (half maximal inhibitory concentration, cytotoxicity) / Cell viability: 72 h; for Cell viability: 100 µg/mL, Vero E6
Method: Chlorocebus sp. kidney epithelial cells (Vero E6; ATCC VERO C1008) were cultured in Dulbecco’s Modified Eagle medium (DMEM) High Glucose w/ Stable Glutamine w/ Sodium Pyruvate (VWR, USA) supplemented with 2% (vol/vol) of decomplemented fetal bovine serum (FBS, Biowest, France) and 1% (vol/vol) Penicillin-Streptomycin (VWR, USA). The cells were grown at 37°C in a humidified 5% CO2 atmosphere. Cells were routinely passaged when they reached 100% confluence and were passaged until passage 15.
The cytotoxic activity of the lipopeptides was assessed using a CyQUANT XTT Cell Viability Assay (Thermo Fisher Scientific) according to the manufacturer’s instructions. […] The cells were then incubated for 72 h at 37°C. The kit was then used following the manufacturer’s instructions, and the plates were read at 450 nm and 660 nm using a Multiskan GO Microplate Spectrophotometer (Thermo Fisher Scientific). The percentage of viable cells was calculated as (AT450 − AT660 − AB450) / (AC450 − AC660) × 100%, where AT450, AT660, AB450, AC450, and AC660 represent the absorbance of the tested well at 450 nm, of the tested well at 660 nm, of the blank (only medium) at 450 nm, of the control cells at 450 nm, and of the control cells at 660 nm, respectively. One hundred percent viability corresponds to the viability of uninfected cells. DMSO concentrations ranging from 0.5% (vol/vol) to 0.001% (vol/vol) were used as a negative control for the assay. Every sample was tested in triplicate.

SARS-CoV-2 [1] = assay: Replication / antiviral assay, viral RNA in supernatant by RT-qPCR; assay type: cell-based; conditions: for Maximal RNA reduction at 100 µg/mL: 72 h pi, compared to untreated infected cells; for EC50 (half maximal effective concentration): SARS-CoV-2 MOI 0.01, Vero E6, viral RNA at 72 h pi by RT-qPCR, mean (standard deviation)
SARS-CoV-2 [2] = tested on: SARS-CoV-2; set-up: method as in PMID 36868316; conditions: co-incubated with SARS-CoV-2; 12.5 µg/mL iturin A, 25 µg/mL mycosubtilin; Vero cells; cited from earlier work
Vero cells = tested on: Vero cells; set-up: method as in earlier work; conditions: ref 38 (Shekunov et al.); cited from earlier work

Substance | IC50 (half maximal inhibitory concentration, cytotoxicity) (Vero E6 cells) | Maximal RNA reduction at 100 µg/mL (SARS-CoV-2 [1]) | EC50 (half maximal effective concentration) (SARS-CoV-2 [1]) | Cell viability (Vero E6 cells) | Viral titer and SARS-CoV-2 cytopathic effects (SARS-CoV-2 [2]) | Maximal RNA reduction at 100 µg/mL (SARS-CoV-2 [1]; listed as lichenysin) [log] | Cytotoxicity (Vero E6 cells; concentrations up to 100 µg/mL, Vero E6, 72 h) | Maximal RNA reduction at 100 µg/mL (SARS-CoV-2 [1]; listed as polymyxin B) | IC50 (Vero cells) [µg/mL] | Maximal RNA reduction at 100 µg/mL (SARS-CoV-2 [1]; listed as pumilacidin) [log]
Fusaricidin | 24.6 (1.1) µg/mL | 3.3-log | 51.2 (13.6) µg/mL |  |  |  |  |  |  | 
Iturin A | 4.9 (0.5) µg/mL | 3.9-log | 18.2 (1.8) µg/mL | no cell viability was observed | could reduce the viral titer and SARS-CoV-2 cytopathic effects (CPEs) |  |  |  |  | 
Lichenysin | 28.1 (1.4) µg/mL | 6.3-log | 25.9 (3.2) µg/mL |  |  | 6.3 |  |  |  | 
Mycosubtilin | 1.8 (0.1) µg/mL | 4.1-log | 12.9 (2.0) µg/mL | no cell viability was observed | could reduce the viral titer and SARS-CoV-2 cytopathic effects (CPEs) |  |  |  |  | 
Polymyxin B [reference compound] | >100.0 µg/mL | 0.3-log | >100.0 µg/mL |  |  |  | did not cause any cytotoxicity | no activity up to 100 µg/mL | 1.1 | 
Pumilacidin | 36.0 (3.5) µg/mL | 6.3-log | 47.8 (0.4) µg/mL |  |  |  |  |  |  | 6.3
